One data set concerns Renal Hypertensive Rats. In words: Antihypertensive activity in renal hypertensive rats (tail-cuff systolic blood pressure and heart rate). The data set is classed as in vivo, rats (Male Sprague-Dawley). The settings on record: single dose po, nicardipine 3 mg/kg, ACE inhibitor 10 mg/kg, combination 3 + 10 mg/kg, n = 6. The procedure: Twenty-four renal hypertensive rates (Male Sprague-Dawley, 140-170g) showing systolic blood pressure of 160 mmHg or greater were chosen for the study. Using the random block design, they were distributed into four groups: 3 groups for compound treatments and one for vehicle control. They were randomly assigned to the treatments. The test compounds were dissolved in deionized water at concentrations such that 1.0 ml of solution was administered per 100 grams of body weight.
At approximately 17 hours prior to dosing, food was removed from the rat cages. On the morning of testing, the rats were dosed with the assigned compound or vehicle by gavage. Immediately after dosing, the rats were put in restrainers and placed in a heated chamber, 30 degrees centrigrade, for four hours. After the four hour reading, the rats were returned to their home cage for 3 hours and then were put in the restrainer again for the hour 8 reading.
Using a tail blood pressure cuff, blood pressure curves and tail pulses were simultaneously monitored on a 4-channel MFE recorder digitized by a computer system. At least four consecutive traces (at 30 second intervals) were recorded for each rat at 1, 2, 4 and 8 hour post-dose.
The computer system has been programmed to find systolic blood pressure (mmHg) and heart rate (beats/min) for each recording and them calculate the mean SBP and the mean HR of each rat at each observation time. Manual editing and confirmation of the analyses were carried out by the investigator on any systolic blood pressure traces that were more than two standard deviations outside the mean blood pressure readings for that animal at a given time period.
The SBP's of the animals in each dose group were compared to the SBP's of the animals in the control group at each observation time using oneway analysis of variance. Significance was determined using the Dunnet test.

For the next data set, the system named is CD rats. The settings on record: rat, in vivo; cited from earlier work.

As to `CCOC(=O)[C@H](CCc1ccccc1)N[C@@H](C)C(=O)N1Cc2cc(OC)c(OC)cc2C[C@H]1C(=O)O` [2-{2-[(1-ethoxycarbonyl)-3-phenylpropyl]amino}-1-oxopropyl-1,2,3,4-tetrahydro-6,7-dimethoxy-3-isoquinoline carboxylic acid], the “HR % Chg (Chg from Control)” value in the data set with Renal Hypertensive Rats (1 Hr post-dose) is 29%; in the data set with Renal Hypertensive Rats (2 Hr post-dose), 4%; with Renal Hypertensive Rats (4 Hr post-dose), 4%; in the data set on Renal Hypertensive Rats (8 Hr post-dose), -11%. Further, the “HR b/min. Chg (Chg from Control)” value in the data set with Renal Hypertensive Rats (1 Hr post-dose) is given as 87 b/min; in the data set with Renal Hypertensive Rats (2 Hr post-dose), 11 b/min; in the data set with Renal Hypertensive Rats (4 Hr post-dose), 10 b/min; in the data set on Renal Hypertensive Rats (8 Hr post-dose), -33 b/min. Further, the “SBP % Chg (Chg from Control)” value in the data set with Renal Hypertensive Rats (1 Hr post-dose) is recorded as -8%; in the data set with Renal Hypertensive Rats (2 Hr post-dose), -7%; in the data set on Renal Hypertensive Rats (4 Hr post-dose), 3%; with Renal Hypertensive Rats (8 Hr post-dose), -7%. Also, the “SBP mmHg Chg (Chg from Control)” value in the data set with Renal Hypertensive Rats (1 Hr post-dose) is given as -14 mmHg; in the data set with Renal Hypertensive Rats (2 Hr post-dose), -13 mmHg; in the data set on Renal Hypertensive Rats (4 Hr post-dose), 4 mmHg; in the data set with Renal Hypertensive Rats (8 Hr post-dose), -12 mmHg.
As to `COC(=O)C1=C(C)NC(C)=C(C(=O)OCCN(C)Cc2ccccc2)C1c1cccc([N+](=O)[O-])c1` (stereo not drawn) [nicardipine, 2,6-dimethyl-4-(3ʹ-nitrophenyl)-1,4-dihydropyridine-3,5-dicarboxylic acid-3-methyl ester-5-β-(N-benzyl-N-methylamino)-ethyl ester], the “HR % Chg (Chg from Control)” value is 22% in the data set on Renal Hypertensive Rats (1 Hr post-dose), 10% in the data set with Renal Hypertensive Rats (2 Hr post-dose), 9% in the data set on Renal Hypertensive Rats (4 Hr post-dose) and -2% in the data set with Renal Hypertensive Rats (8 Hr post-dose). The “HR b/min. Chg (Chg from Control)” value was 65 b/min with Renal Hypertensive Rats (1 Hr post-dose), 30 b/min in the data set with Renal Hypertensive Rats (2 Hr post-dose), 25 b/min with Renal Hypertensive Rats (4 Hr post-dose) and -4 b/min with Renal Hypertensive Rats (8 Hr post-dose). Besides, the “SBP % Chg (Chg from Control)” value in the data set on Renal Hypertensive Rats (1 Hr post-dose) was -3%; in the data set with Renal Hypertensive Rats (2 Hr post-dose), -4%; in the data set on Renal Hypertensive Rats (4 Hr post-dose), -6%; in the data set with Renal Hypertensive Rats (8 Hr post-dose), -20%. Further, the “SBP mmHg Chg (Chg from Control)” value in the data set on Renal Hypertensive Rats (1 Hr post-dose) is listed as -5 mmHg; in the data set on Renal Hypertensive Rats (2 Hr post-dose), -7 mmHg; with Renal Hypertensive Rats (4 Hr post-dose), -10 mmHg; with Renal Hypertensive Rats (8 Hr post-dose), -35 mmHg. Also, the “clinical sign noted previously in studies in rats” value in the data set on CD rats is listed as “pink skin (peripheral vasodilation)”.

(Values after patent publication EP0259838A2, “Pharmaceutical composition containing A 1,4-dihydropyridine derivative and an acylated 1,2,3,4-tetrahydroisoquinoline-3-carboxylic acid” (priority 1986, dated 1988).)
